# Patent US20200368310A1, “TREATMENT WITH NMDA RECEPTOR MODULATORS” (Naurex, Inc, priority 2017, published 2020)
# Residues, ends and D or L forms follow the SMILES beside them.
# Test system: Male rats
# Assay: Sleep-wake cycle analysis by telemetric EEG recording in rats
# Assay type: in vivo, rat
# Details: for percentage of active waking: FIG. 4B
# Procedure: Male rats were anesthetized and surgically implanted with 2 surface electrodes in the frontoparietal cortex and 2 depth electrodes in the CA1 region of the hippocampus (AP +5.0 mm, L ±2.5 mm, V +7.0 mm). After ≥10 days recovery, telemetric transmitters were connected to electrodes for electroencephalographic (EEG) recordings. On the day of experiment, rats were injected at the beginning of the light phase with rapastinel (3, 10, or 30 mg/kg, IV), ketamine (30 mg/kg, IP), or the positive control zolpidem (12 mg/kg, PO) using a treatment schedule based on a cross-over design (n=9-10/dose/group) in which rats received zolpidem or rapastinel at session 1 and then rapastinel and/or ketamine at sessions 2-4. Physiological saline was used as the vehicle control
# Sleep-wake cycles were measured continuously following rapastinel treatment for the next 23 hours and were analyzed based on a spectral power analysis. Latencies to first occurrence of SWS and REM sleep, as well as percent time spent in SWS, REM sleep, and wakefulness, were calculated for the total recording sessions (23 hours), the half cycles (0-12 and 12-23 hours), and 5 time segments (0-4, 4-8, 8-12, 12-18, and 18-23 hours). Depth of SWS (defined as the ratio between alpha and delta spectral power) was also calculated. Differences between vehicle and test drugs were calculated for all variables, for each animal, and for the means of the animals per treatment group, and analyzed using a paired t-test
smiles,measurement,setting,value
"CNC1(c2ccccc2Cl)CCCCC1=O (stereo not drawn) [Ketamine, ketamine]",alpha/delta ratio (depth of SWS),"ketamine 30 mg/kg IP, 0-4 hours post-dose, P<0.001",concomitant decrease
same,duration of SWS,"ketamine 30 mg/kg IP, 0-4 hours post-dose, P<0.001, FIG. 2A",decreased
same,duration of REM sleep,"ketamine 30 mg/kg IP, 0-4 hours post-dose, P<0.001, FIG. 3",decreased
same,waking (duration),"ketamine 30 mg/kg IP, 12-23 hours post-dose, P<0.01, FIG. 4A",small but significant decrease
same,REM sleep (duration),"ketamine 30 mg/kg IP, 12-23 hours post-dose, P<0.05, FIG. 3",compensatory increase
same,percentage of active waking,"ketamine 30 mg/kg IP, 12-23 hours post-dose, P<0.05",significantly decreased
same,duration of waking,"ketamine 30 mg/kg IP, first 4 hours post-dose, P<0.001, FIG. 4A",significantly increased
"Cc1ccc(-c2nc3ccc(C)cn3c2CC(=O)N(C)C)cc1 [Zolpidem, zolpidem]",percentage of active waking,"zolpidem 12 mg/kg PO, 0-12 hours post-dose, P<0.05",significantly decreased
same,duration of REM sleep,"zolpidem 12 mg/kg PO, 4-8 hours post-dose, P<0.05, FIG. 3",significantly decreased
"C[C@@H](O)[C@H](N)C(=O)N1CCC[C@H]1C(=O)N1CCC[C@H]1C(=O)N[C@H](C(N)=O)[C@@H](C)O [Rapastinel, rapastinel] (H-TPPT-NH2)",percentage of active waking,"rapastinel 30 mg/kg IV, 8-12 hours post-dose, P<0.01",small but significant decrease
same,percentage of active waking,"rapastinel 30 mg/kg IV, 18-23 hours post-dose, P<0.05",small but significant decrease
same,percentage of active waking,"rapastinel, all doses and periods except 8-12 and 18-23 hours at 30 mg/kg",no effect
